From patent US20230285405A1, “Pharmaceuticals for Treating or Preventing Nidoviruses and Picornaviruses” (priority 2020, published 2023)
Where a name gives a salt, the structure may show the parent alone. Read-outs that look alike come from different tables or passages of the source.

Key:
[1] = tested on: OC43; assay: Drug screening: OC43 nucleoprotein staining in infected A549-mRuby cells; assay type: cell-based, human beta coronavirus OC43; settings: for activity at 10 µM: Betacoronavirus 1, OC43, 96 h
How it was run: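 Repurposing screen: drugs at 10 μM final added 1 h after OC43 infection (MOI 0.3) of H2B-mRuby A549 cells, 4-day incubation at 33° C. Cell counts imaged at day 0 and day 4; nucleoprotein staining per cell normalized to untreated infected wells, hit threshold >3 SD in duplicate screens, non-toxic.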

[2] = tested on: A549-mRuby cells; assay: Drug screening: effect on cell growth (cell number day 4 / day 0); settings: 10 μM drug; for Growth_1: number of cells at day 4 divided by number of cells at day 0 / toxic_1: repeat #1; for Growth_2: number of cells at day 4 divided by number of cells at day 0 / toxic_2: repeat #2
How it was run: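 Growth was scored as day 4/day 0 cell count from images of OC43-infected (MOI 0.3) A549-mRuby nuclear-reporter cells. Compounds were added at 10 μM final after a 1 h infection at 33° C, followed by 4 days of culture at 33° C in two independent screens.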

[3] = tested on: OC43; assay: Dose-response analysis of OC43 infection; assay type: cell-based, human beta coronavirus OC43
Procedure: Dose-response analysis of OC43 infection was done similarly to the drug screening, except cells were seeded at a concentration of 5,000 cells per well and the media contained 2% BCS instead of 10% BCS. OC43 staining was performed 2 days after infection and analyzed similarly to what was described for the drug screening. A sigmoid fit was used to extract EC50 values using Matlab.

[4] = tested on: SARS-CoV-2; assay: microbe, parasite or virus in culture; assay type: cell-based, SARS-CoV-2 (nCoV/Washington/1/2020)
[5] = 10 μM drug, MOI 0.3, 4 days, OC43 staining normalized to no-drug controls, mean of the two screen repeats
[6] = 10 μM drug, MOI 0.3, 4 days, normalized to no-drug controls in the same plate, repeat #1
[7] = 10 μM drug, MOI 0.3, 4 days, normalized to no-drug controls in the same plate, repeat #2
[8] = A549-mRuby cells, staining 2 days after infection, read-out: EC50 OC43
[9] = 10 μM drug, MOI 0.3, 4 days, OC43 staining normalized to no-drug controls, mean of the two screen repeats, read-out: OC43_mean
[10] = 10 μM drug, MOI 0.3, 4 days, normalized to no-drug controls in the same plate, repeat #1, read-out: OC43_1: % staining of OC43 in screen repeat #1
[11] = 10 μM drug, MOI 0.3, 4 days, normalized to no-drug controls in the same plate, repeat #2, read-out: OC43_2: % staining of OC43 in screen repeat #2
[12] = Betacoronavirus 1, OC43, 48 h, read-out: EC50 OC43, A549-mRuby cells, staining 2 days after infection
[13] = Severe acute respiratory syndrome coronavirus 2; read-out: EC50 SARS2

Compound | hit_1 ([1]; 10 μM drug, repeat #1) | hit_2 ([1]; 10 μM drug, repeat #2) | Growth_1: number of cells at day 4 divided by number of cells at day 0 [2] | toxic_1 [2] | Growth_2: number of cells at day 4 divided by number of cells at day 0 [2] | toxic_2 [2] | activity at 10 µM [1, 9] | activity at 10 µM [1, 10] | activity at 10 µM [1, 11] | EC50 [3, 12] | EC50 [4, 13] | further results
C[C@@H]1[C@H](O)[C@@H](C)/C=C/C=C/C=C/C=C/C=C/C=C/C=C/[C@H](O[C@@H]2O[C@H](C)[C@@H](O)[C@H](N)[C@@H]2O)C[C@@H]2O[C@](O)(C[C@@H](O)C[C@@H](O)[C@H](O)CC[C@@H](O)C[C@@H](O)CC(=O)O[C@H]1C)C[C@H](O)[C@H]2C(=O)O [Amphotericin B] | 1 | 1 | 4.3 | 0 | 5.8 | 0 |  |  |  |  |  | OC43_mean [1, 5]: 6.6%; OC43_1: % staining of OC43 in screen repeat #1 [1, 6]: 1.5%; OC43_2: % staining of OC43 in screen repeat #2 [1, 7]: 11.8%; EC50 [3, 8]: 0.04 µM; inhibition of SARS-CoV-2 infection (in words) [4]: did not inhibit SARS-CoV-2 infection; EC50 ([4]; read-out: EC50 SARS2): > 1 µM
CN1CCCC(n2nc(Cc3ccc(Cl)cc3)c3ccccc3c2=O)CC1.O (stereo not shown) [Azelastine HCl] | 1 | 1 | 4.1 | 0 | 3.2 | 0 | 19.1% | 19.6% | 18.5% | 3.7 µM | 2.4 µM | inhibition of OC43 infection (in words) ([3]; dose-response): inhibits; inhibition of SARS-CoV-2 infection (in words) [4]: inhibits
CCCCOC(=O)c1ccc(N)cc1 [Butamben] | 1 | 1 | 3.9 | 0 | 4.7 | 0 | 4.9% | 3.8% | 6.1% | 3.1 µM | > 10 µM | 
CCCCOC(=O)c1ccc(O)cc1 [Butylparaben] | 1 | 1 | 3.3 | 0 | 3.6 | 0 | 5.2% | 7% | 3.5% | 1.7 µM | > 10 µM | 
COc1cc2c(Oc3ccc4[nH]c(C)cc4c3F)ncnc2cc1OCCCN1CCCC1 [Cediranib (AZD2171), Cediranib] | 1 | 1 | 2.6 | 0 | 2.4 | 0 | 19% | 17.8% | 20.2% | 0.52 µM | 3.6 µM | EC50 ([3]; read-out: EC50 OC43, A549-mRuby cells, staining 2 days after infection): 0.5 µM
COc1ccc2cc1Oc1ccc(cc1)C[C@H]1c3c(cc4c(c3Oc3cc5c(cc3OC)CCN(C)[C@@H]5C2)OCO4)CCN1C [Cepharanthine] | 1 | 1 | 4.3 | 0 | 4.7 | 0 | 20.3% | 28.5% | 12.1% | 0.77 µM | 0.13 µM | 
COC(=O)N[C@H](C(=O)N1CCC[C@H]1c1ncc(-c2ccc3c(c2)O[C@@H](c2ccccc2)n2c-3cc3cc(-c4cnc([C@@H]5CCCN5C(=O)[C@@H](NC(=O)OC)C(C)C)[nH]4)ccc32)[nH]1)C(C)C [Elbasvir] | 1 | 1 | 4.7 | 0 | 5.3 | 0 | 20.1% | 18.8% | 21.4% | 0.17 µM | > 10 µM | inhibition of SARS-CoV-2 infection (in words) [4]: did not inhibit SARS-CoV-2 infection
OCCN1CCN(CC/C=C2/c3ccccc3Sc3ccc(C(F)(F)F)cc32)CC1 [Flupenthixol dihydrochloride] |  |  |  |  |  |  |  |  |  |  |  | EC50 ([3]; read-out: EC50 OC43): 1.8 µM; EC50 ([4]; read-out: EC50 SARS2): 0.56 µM
CN(C)CCCN1c2ccccc2CCc2ccccc21.O [Imipramine HCl] | 1 | 1 | 4.0 | 0 | 4.2 | 0 |  | 6.7% | 22.3% | 6 µM |  | activity at 10 µM ([1]; read-out: OC43_mean, 10 μM drug, MOI 0.3, 4 days, OC43 staining normalized to no-drug controls, mean of the two screen repeats): 14.5%
CCN(CCCCOC(=O)c1ccc(OC)c(OC)c1)C(C)Cc1ccc(OC)cc1.O (stereo not shown) [Mebeverine Hydrochloride] | 1 | 1 | 5.2 | 0 | 3.9 | 0 | 20% | 20.1% | 19.9% | 5 µM | 10 µM | 
CNCCC=C1c2ccccc2CCc2ccccc21.O [Nortriptyline hydrochloride] | 1 | 1 | 4.2 | 0 | 3.1 | 0 | 19.6% | 25.2% | 14% | 7.5 µM |  | EC50 ([4]; Severe acute respiratory syndrome coronavirus 2, read-out: EC50 SARS2): 3.2 µM
CCN(CC)CCOCCOC(=O)C1(c2ccccc2)CCCC1.O=C(O)CC(O)(CC(=O)O)C(=O)O [Pentoxyverine Citrate] | 1 | 1 | 5.0 | 0 | 5.7 | 0 | 9.3% | 10.8% | 7.7% | 5.5 µM | 3.6 µM | 
CCCNCC(O)COc1ccccc1C(=O)CCc1ccccc1.O (stereo not shown) [Propafenone HCl] | 1 | 1 | 4.7 |  | 3.4 |  | 19.8% | 20.4% | 19.2% | 7.3 µM | 3.7 µM | 
O.O=C(c1ccc(OCCN2CCCCC2)cc1)c1c(-c2ccc(O)cc2)sc2cc(O)ccc12 [Raloxifene HCl] | 1 | 1 | 5.0 | 0 | 5.2 | 0 | 11.7% | 9.4% | 14% | 2.7 µM | 3.8 µM | 
CCC(CC)COC(=O)[C@H](C)N[P@](=O)(OC[C@H]1O[C@@](C#N)(c2ccc3c(N)ncnn23)[C@H](O)[C@@H]1O)Oc1ccccc1 [Remdesivir] |  |  |  |  |  |  |  |  |  |  | 0.1 µM | EC50 [3, 8]: 0.96 µM; EC50 ([3]; Betacoronavirus 1, OC43, 48 h, A549-mRuby cells, staining 2 days after infection, read-out: EC50 OC43): 0.9 µM
Cc1ccc(O)c([C@H](CCN(C(C)C)C(C)C)c2ccccc2)c1.O=C(O)C(O)C(O)C(=O)O [Tolterodine tartrate] | 1 | 1 | 5.0 | 0 | 5.1 | 0 | 16.6% | 21.7% | 11.6% | 7 µM |  | 
CC(CN(C)C)CN1c2ccccc2CCc2ccccc21 (stereo not shown) [Trimipramine maleate] |  |  |  |  |  |  |  |  |  | 3.8 µM | 1.5 µM | 
Erythromycin Cyclocarbonate | 1 | 1 | 5.7 | 0 | 6.0 | 0 |  |  |  |  |  | OC43_mean [1, 5]: 18.9%; OC43_1: % staining of OC43 in screen repeat #1 [1, 6]: 16.7%; OC43_2: % staining of OC43 in screen repeat #2 [1, 7]: 21.1%; EC50 [3, 8]: > 10 µM
